The test system of test [1] is IL-6 release of primary MDS patient PBMCs stimulated with LPS. The experiment in a line: IL-6 release of LPS-stimulated primary MDS patient PBMCs, electrochemiluminescence immunoassay (nine-point titration). Type of test: cell-based, human. The note with it: n=2 donors, FIG. 1. How it is done:
This study was performed to evaluate the anti-inflammatory activity of pelabresib on MDS patient cells from different donors. The NF-kB pathway is central in regulating cytokines such as TNF-α, IL-6, and IL-8 which are elevated in MDS patients and play role in the pathogenesis of myelodysplastic syndromes (Ref: e.g. doi: 10.1097/MD.0000000000015844). Primary MDS patient samples (cryopreserved peripheral blood mononuclear cells (PBMCs)) were purchased from Discovery Life Sciences. For sample selection, we chose patients with low blast count (ideally below 5%), excluded patients with multilineage dysplasia and (if available) checked blood parameters such as white blood cell count and disease staging notes in order to select patients that show LR-MDS characteristics. Freshly thawed PBMCs were seeded at 50 000 cells/well in a 96-well flat bottom plate. 0.001 μg/mL lipopolysaccharide (LPS-B5, Invivogen) were added to induce IL-6 production. […] After centrifugation, the supernatant of the cells was collected and IL-6 protein in the supernatant was quantified using Human IL-6 Kit (V-PLEX, Meso Scale Discovery). The assay plates were read on a Meso Sector S600. […] The half maximal inhibitory concentration (IC50) was calculated by logarithmic transformation of the compound concentrations and applying “log(inhibitor) vs. response—variable slope (four parameters)”—function.

Test [2] deals with IFNγ release of primary MDS patient PBMCs stimulated with LPS. The experiment in a line: Cytokine release of LPS-stimulated primary MDS patient PBMCs (eight-point titration): IFNγ. Type of test: cell-based, human. As to conditions: 5 μM to 8.2 nM, normalized to DMSO only, n=7-10 donors, FIG. 3. How it is done:
(§1) Primary MDS patient samples (cryopreserved peripheral blood mononuclear cells (PBMCs)) were purchased from Discovery Life Sciences. For sample selection, we chose patients with low blast count (ideally below 5%), excluded patients with multilineage dysplasia and (if available) checked blood parameters such as white blood cell count and disease staging notes in order to select patients that show LR-MDS characteristics. Freshly thawed PBMCs were seeded at 50 000 cells/well in a 96-well flat bottom plate. 0.001 μg/mL lipopolysaccharide (LPS-B5, Invivogen) were added to induce IL-6 production. […] After centrifugation, the supernatant of the cells was collected and IL-6 protein in the supernatant was quantified using Human IL-6 Kit (V-PLEX, Meso Scale Discovery). The assay plates were read on a Meso Sector S600. […] The half maximal inhibitory concentration (IC50) was calculated by logarithmic transformation of the compound concentrations and applying “log(inhibitor) vs. response—variable slope (four parameters)”—function. […] After centrifugation, the supernatant of the cells was collected and IFNγ, TNFα, IL-6, IL-8 or IL-10 protein in the supernatant was quantified using Proinflammatory Panel 1 Human Kit (IFNγ, TNFα, IL-6 and IL-10) or Human IL-8 Kit (both V-PLEX, Meso Scale Discovery). The assay plates were read on a Meso Sector S600. […]

The test system of test [3] is TNFα release of primary MDS patient PBMCs stimulated with LPS. Description: Cytokine release of LPS-stimulated primary MDS patient PBMCs (eight-point titration): TNFα. Type of test: cell-based, human. The note with it: 5 μM to 8.2 nM, normalized to DMSO only, n=7-10 donors, FIG. 3. How it is done:
as §1

Test [4] concerns IL-6 release of primary MDS patient PBMCs stimulated with LPS. Description: Cytokine release of LPS-stimulated primary MDS patient PBMCs (eight-point titration): IL-6. Type of test: cell-based, human. The note with it: 5 μM to 8.2 nM, normalized to DMSO only, n=7-10 donors, FIG. 3. How it is done:
as §1

Test [5] has as its system IL-8 release of primary MDS patient PBMCs stimulated with LPS. The experiment in a line: Cytokine release of LPS-stimulated primary MDS patient PBMCs (eight-point titration): IL-8. Type of test: cell-based, human. The note with it: 5 μM to 8.2 nM, normalized to DMSO only, n=7-10 donors, FIG. 3. How it is done:
as §1

Test [6] deals with IL-10 release of primary MDS patient PBMCs stimulated with LPS. Description: Cytokine release of LPS-stimulated primary MDS patient PBMCs (eight-point titration): IL-10. As to conditions: 5 μM to 8.2 nM, normalized to DMSO only, n=7-10 donors, FIG. 3. The test is classed as cell-based, human. How it is done: as §1
The test system of test [7] is CD34+ stem cells derived from LR-MDS donors. The experiment in a line: Erythropoiesis of hematopoietic stem cells (CD34+) isolated from MDS patient bone marrow, flow cytometry. Type of test: cell-based, human. The note with it: pelabresib monohydrate 500 nM to 31.25 nM tested; FIG. 2 at 250 nM with erythroid expansion supplement, day 7, n=2 donors. The source says:
Primary MDS patient samples (cryopreserved bone marrow mononuclear cells (BMMCs)) were purchased from Discovery Life Sciences. For sample selection, we chose patients with low blast count (ideally below 5%), excluded patients with multilineage dysplasia and (if available) checked blood parameters such as white blood cell count and disease staging notes in order to select patients that show LR-MDS characteristics. Hematopoietic stem cells (CD34+) were isolated with EasySep Human CD34+ selection Kit II (StemCell Technologies) using freshly thawed cells. Cells were seeded at 1000 cells/well (for erythropoiesis) or 2500 cells/well (for CC100 differentiation mix) in a 96-flat-well plate. Differentiation cocktails StemSpan™ Erythroid Expansion Supplement (for Erythropoieses) or StemSpan™ CC100 (differentiation mix) were added according to the manufacturer's instructions. A 5-point titration series of pelabresib monohydrate with concentrations ranging from 500 nM to 31.25 nM was tested in duplicate. “DMSO only” treated wells served as control and were also used to prepare flow cytometry controls (such as FMOs). […] On day 7 cells were analysed via flow cytometry. […] Among the viable cells the percentage of CD34+CD71+ (megakaryocyte-erythroid progenitors (MEP)) and percentage of CD34−CD71+ (pro-erythroblasts/erythroblasts (pro-EB/EB)) was determined and depicted in GraphPad Prism 8 per donor.

The subject of another test is advanced MF patients. As to conditions: cited from earlier work.
Test [8] concerns transfusion dependent MF patients. The note with it: Arm 2, pelabresib in addition to ruxolitinib; cited from earlier work.
Test [9] deals with erythrocyte progenitors in bone marrow biopsy. The note with it: semi-quantitative CD71 IHC, baseline vs Week 24, 22 out of 37; cited from earlier work.
In test [10] the test system is CD34+ cells isolated from blood samples of healthy donors and MF patients. As to conditions: cited from earlier work.
The subject of test [11] is inflammatory cytokine regulated by the NF-κB pathway. As to conditions: lymphoma and MF patients; cited from earlier work.

SMILES strings stand for the structures.

Here are results for 1 compound from US20260216204A1, “METHODS FOR TREATING LOWER RISK MYELODYSPLASTIC SYNDROME” (Constellation Pharmaceuticals, Inc., priority 2022, published 2026).

Turning to `Cc1noc2c1-c1ccccc1C(c1ccc(Cl)cc1)=N[C@H]2CC(N)=O` [pelabresib, 2-((4S)-6-(4-chlorophenyl)-1-methyl-4H-benzo[c]isoxazolo[4,5-e]azepin-4-yl)acetamide], the “IL-6 release in donor PBMCs” value in test [1] (5 μM to 3.3 nM, dose dependent) is “suppressed IL-6 release”. Further, 248 nM corresponded to half-maximal inhibition in test [1] (Homo sapiens, PBMC, 0.001 μg/mL LPS, approx. 18 hours, normalized to DMSO only control) (IC50). For the same compound, the “release of IFNγ” value in test [2] was “suppressed release”. Moreover, in [3], the “release of TNFα” value is “suppressed release”. The “release of IL-6” value in test [4] is “suppressed release”. Further, the “release of IL-8” value in test [5] was “suppressed release”. Moreover, the “release of IL-10” value in [6] is reported as “suppressed release”. Moreover, the “differentiation of CD34+ stem cells towards erythropoiesis” value in test [7] is recorded as “enhanced the differentiation”. Moreover, in the test on advanced MF patients (Arm 1, monotherapy), the “median duration of RBC-TI” value is 44 weeks and the “transfusion dependent relapsed/refractory MF patients who achieved RBC-TI ≥12 weeks” value was 21%. The “patients who achieved ≥1.5 g/dL increase in Hgb levels without transfusion” value with advanced MF patients (monotherapy, 11 out of 19) is 57.9%. Moreover, in test [8], the “median duration of RBC-TI” value was 39 weeks and the “transfusion dependent MF patients who achieved RBC-TI ≥12 weeks” value is 36%. Also, the “patients with an increase in erythrocyte progenitors” value in test [9] was 59%. The erythrocyte maturation entry in [10] (CD34+ cells from healthy donors and MF patients, cytokine cocktail) is on record as “promotes erythrocyte maturation”. In addition, in [10] (in the presence of ruxolitinib, dose-dependent), the “suppressive effects of ruxolitinib on erythroid differentiation” value is listed as “rescued the suppressive effects”. Moreover, in test [11], the “levels of inflammatory cytokine regulated by the NF-κB pathway” value was “can decrease the levels”.
